Where a name gives a salt, the structure may show the parent alone.
These compounds were tested against T1, unphosphorylated VEGF-R2Δ50 (FLVK) (Homo sapiens, UniProt P35968, DEL940-989/E990V) (assay: VEGF-R2 coupled spectrophotometric assay, unphosphorylated enzyme (FLVK)). Details: Table 3; at 50 nM.
T1 construct: VEGF-R2Δ50 contains residues 806-939 and 990-1171; made in house; host or cells: baculovirus/insect cells
Type: biochemical
Text: VEGF-R2 Construct for Assay: This construct determines the ability of a test compound to inhibit tyrosine kinase activity. A construct (VEGF-R2Δ50) of the cytosolic domain of human vascular endothelial growth factor receptor 2 (VEGF-R2) lacking the 50 central residues of the 68 residues of the kinase insert domain was expressed in a baculovirus/insect cell system. Of the 1356 residues of full-length VEGF-R2, VEGF-R2Δ50 contains residues 806-939 and 990-1171, and also one point mutation (E990V) within the kinase insert domain relative to wild-type VEGF-R2. Autophosphorylation of the purified construct was performed by incubation of the enzyme at a concentration of 4 μM in the presence of 3 mM ATP and 40 mM MgCl2 in 100 mM Hepes, pH 7.5, containing 5% glycerol and 5 mM DTT, at 4° C. for 2 h. […] See Parast et al., Biochemistry, 37, 16788-16801 (1998).
The production of ADP from ATP that accompanies phosphoryl transfer was coupled to oxidation of NADH using phosphoenolpyruvate (PEP) and a system having pyruvate kinase (PK) and lactic dehydrogenase (LDH). The oxidation of NADH was monitored by following the decrease of absorbance at 340 nm (e340=6.22 cm^−1 mM^−1) using a Beckman DU 650 spectrophotometer. Assay conditions for phosphorylated VEGF-R2Δ50 (indicated as FLVK-P in the tables below) were the following: 1 mM PEP; 250 μM NADH; 50 units of LDH/mL; 20 units of PK/mL; 5 mM DTT; 5.1 mM poly(E4Y1); 1 mM ATP; and 25 mM MgCl2 in 200 mM Hepes, pH 7.5. Assay conditions for unphosphorylated VEGF-R2Δ50 (indicated as FLVK in the tables) were the following: 1 mM PEP; 250 μM NADH; 50 units of LDH/mL; 20 units of PK/mL; 5 mM DTT; 20 mM poly(E4Y1); 3 mM ATP; and 60 mM MgCl2 and 2 mM MnCl2 in 200 mM Hepes, pH 7.5. Assays were initiated with 5 to 40 nM of enzyme. Ki values were determined by measuring enzyme activity in the presence of varying concentrations of test compounds. The data were analyzed using Enzyme Kinetic and Kaleidagraph software.

T1 sequence (P35968 with tags, fused parts or gaps DEL940-989/E990V limits assumed): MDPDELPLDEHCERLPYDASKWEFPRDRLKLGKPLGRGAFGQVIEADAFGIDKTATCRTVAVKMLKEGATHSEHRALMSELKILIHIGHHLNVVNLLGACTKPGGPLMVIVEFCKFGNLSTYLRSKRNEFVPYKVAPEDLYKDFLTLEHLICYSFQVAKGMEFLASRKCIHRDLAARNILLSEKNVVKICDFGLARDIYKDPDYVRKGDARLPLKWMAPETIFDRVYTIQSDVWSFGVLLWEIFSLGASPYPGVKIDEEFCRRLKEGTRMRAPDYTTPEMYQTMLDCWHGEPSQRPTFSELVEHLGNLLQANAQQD

inhibition at 0.05 µM | SMILES
0% | COc1cc(F)c(-c2noc(-c3sc(Nc4cc(OC)c(OC)c(OC)c4)nc3N)n2)cc1NC(=O)OC(C)(C)C [B(41)]
12% | COC(=O)c1cccc(-c2noc(-c3sc(Nc4cc(OC)c(OC)c(OC)c4)nc3N)n2)c1 [B(42)]
11% | COc1cc(Nc2nc(N)c(-c3nc(-c4cccc(C(=O)O)c4)no3)s2)cc(OC)c1OC [B(43)]
3% | COc1cc(Nc2nc(N)c(-c3nc(-c4cc(N)ccc4F)no3)s2)cc(OC)c1OC [C(4), 3-[3-amino-6-fluorophenyl]-5-[2-[(3,4,5-trimethoxyphenyl)amino]-4-amino-5-thiazolyl]-1,2,4-oxadiazole]
15% | COc1cc(F)c(-c2noc(-c3sc(Nc4cc(OC)c(OC)c(OC)c4)nc3N)n2)cc1N [C(5), 3-[2-fluoro-4-methoxy-5-aminophenyl]-5-[2-[(3,4,5-trimethoxyphenyl)amino]-4-amino-5-thiazolyl]-1,2,4-oxadiazole]
5% | Cc1cccc(C(=O)Nc2cccc(-c3noc(-c4sc(NS(C)(=O)=O)nc4N)n3)c2)c1 [F(15), N-{3-[5-(4-Amino-2-methanesulfonylamino-thiazol-5-yl)-[1,2,4]oxadiazol-3-yl]-phenyl}-3-methyl-benzamide]
11% | COc1cccc(C(=O)Nc2cc(-c3csc(-c4sc(NC(=O)NCc5ccccn5)nc4N)n3)c(F)cc2F)c1 [O(16), N-{5-[4′-Amino-2′-(3-pyridin-2-ylmethyl-ureido)-[2,5′]bithiazolyl-4-yl]-2,4-difluoro-phenyl}-3-methoxy-benzamide]
29% | COc1cccc(C(=O)Nc2cc(-c3csc(-c4sc(NC(=O)NC[C@@H]5CCCO5)nc4N)n3)c(F)cc2F)c1 [O(23), N-[5-(4′-Amino-2′-{3-[(S)-1-(tetrahydro-furan-2-yl)methyl]-ureido}-[2,5′]bithiazolyl-4-yl)-2,4-difluoro-phenyl]-3-methoxy-benzamide]
22% | COc1cccc(C(=O)Nc2cc(-c3csc(-c4sc(NC(=O)NC[C@H]5CCCO5)nc4N)n3)c(F)cc2F)c1 [O(24), N-[5-(4′-Amino-2′-{3-[(R)-1-(tetrahydro-furan-2-yl)methyl]-ureido}-[2,5′]bithiazolyl-4-yl)-2,4-difluoro-phenyl]-3-methoxy-benzamide]
28% | COc1cccc(C(=O)Nc2cc(-c3csc(-c4sc(NC(=O)NCC5CCCCC5)nc4N)n3)c(F)cc2F)c1 [O(25), N-{5-[4′-Amino-2′-(3-cyclohexylmethyl-ureido)-[2,5′]bithiazolyl-4-yl]-2,4-difluoro-phenyl}-3-methoxy-benzamide]
39% | COc1cccc(C(=O)Nc2cc(-c3csc(-c4sc(NC(=O)NCCc5ccncc5)nc4N)n3)c(F)cc2F)c1 [O(30), N-(5-{4′-Amino-2′-[3-(2-pyridin-4-yl-ethyl)-ureido]-[2,5′]bithiazolyl-4-yl}-2,4-difluoro-phenyl)-3-methoxy-benzamide]

Same assay, conditions: Table 3; concentration not given

FLVK % inhibition | SMILES
80% | COc1cccc(C(=O)Nc2cc(-c3noc(-c4sc(Nc5cccnc5)nc4N)n3)c(F)cc2F)c1 [B(20), N-(5-{5-[4-Amino-2-(pyridin-3-ylamino)-thiazol-5-yl]-[1,2,4]oxadiazol-3-yl}-2,4-difluoro-phenyl)-3-methoxy-benzamide-TFA salt]

Same assay, conditions: Table 3; some entries 'Slow binder'

Ki | SMILES
1.7 nM | Cc1ccc(NC(=O)OC(C)(C)C)cc1-c1noc(-c2sc(Nc3ccccc3)nc2N)n1 [B(23)]
2.1 nM | Cc1ccc(NC(=O)OC(C)(C)C)cc1-c1noc(-c2sc(Nc3ccc4nc[nH]c4c3)nc2N)n1 [B(24)]
29 nM | COc1ccc(NC(=O)OC(C)(C)C)cc1-c1noc(-c2sc(Nc3cc(OC)c(OC)c(OC)c3)nc2N)n1 [B(25)]
2.8 nM | CCn1nc(C)cc1C(=O)Nc1ccc(C)c(-c2noc(-c3sc(Nc4ccccc4)nc3N)n2)c1 [B(26)]
0.3 nM | CCn1nc(C)cc1C(=O)Nc1ccc(C)c(-c2noc(-c3sc(Nc4ccc(N5CCN(C)CC5)nc4)nc3N)n2)c1 [B(27)]
3 nM | COc1cccc(C(=O)Nc2cc(-c3noc(-c4sc(Nc5ccc(N6CCN(C)CC6)nc5)nc4N)n3)c(C)cc2Cl)c1 [B(28)]
0.9 nM | Cc1ccc(NC(=O)C(O)CC(C)C)cc1-c1noc(-c2sc(Nc3ccc(N4CCN(C)CC4)nc3)nc2N)n1 (centres unmarked) [B(29)]
5.1 nM | C/C=C(/C)C(=O)Nc1ccc(C)c(-c2noc(-c3sc(Nc4ccc(N5CCN(C)CC5)nc4)nc3N)n2)c1 [B(31)]
4.1 nM | COc1cc(Nc2nc(N)c(-c3nc(-c4cccc(NC(=O)c5cccc(C(N)=O)c5)c4)no3)s2)cc(OC)c1OC [D(71)]
2.6 nM | COc1cc(Nc2nc(N)c(-c3nc(-c4cccc(NC(=O)c5ccc(CN6CCN(C)CC6)cc5)c4)no3)s2)cc(OC)c1OC [D(77)]
0.28 nM | COc1cccc(C(=O)Nc2cc(-c3noc(-c4sc(NC(=O)NCCN5CCOCC5)nc4N)n3)c(F)cc2F)c1 [O(1), N-[5-(5-{4-Amino-2-[3-(2-morpholin-4-yl-ethyl)-ureido]-thiazol-5-yl}-[1,2,4]oxadiazol-3-yl)-2,4-difluoro-phenyl]-3-methoxy-benzamide]
0.57 nM | COc1cccc(C(=O)Nc2cc(-c3noc(-c4sc(NC(=O)NCC(N)=O)nc4N)n3)c(F)cc2F)c1 [O(3), N-(5-{5-[4-Amino-2-(3-carbamoylmethyl-ureido)-thiazol-5-yl]-[1,2,4]oxadiazol-3-yl}-2,4-difluoro-phenyl)-3-methoxy-benzamide]
0.22 nM | COc1cccc(C(=O)Nc2cc(-c3noc(-c4sc(NC(=O)NCC5CCCO5)nc4N)n3)c(F)cc2F)c1 (centres unmarked) [O(5), N-[5-(5-{4-Amino-2-[3-(tetrahydro-furan-2-ylmethyl)-ureido]-thiazol-5-yl}-[1,2,4]oxadiazol-3-yl)-2,4-difluoro-phenyl]-3-methoxy-benzamide]
0.15 nM | COc1cccc(C(=O)Nc2cc(-c3noc(-c4sc(NC(=O)NCCOCCO)nc4N)n3)c(F)cc2F)c1 [O(6), N-{5-[5-(4-Amino-2-{3-[2-(2-hydroxy-ethoxy)-ethyl]-ureido}-thiazol-5-yl)-[1,2,4]oxadiazol-3-yl]-2,4-difluoro-phenyl}-3-methoxy-benzamide]
0.21 nM | COc1cccc(C(=O)Nc2cc(-c3noc(-c4sc(NC(=O)NCc5ccccn5)nc4N)n3)c(F)cc2F)c1 [O(8), N-(5-{5-[4-Amino-2-(3-pyridin-2-ylmethyl-ureido)-thiazol-5-yl]-[1,2,4]oxadiazol-3-yl}-2,4-difluoro-phenyl)-3-methoxy-benzamide]
1.5 nM | CC[C@@H](CO)NC(=O)Nc1nc(N)c(-c2nc(-c3cc(NC(=O)c4cccc(OC)c4)c(F)cc3F)cs2)s1 [O(22), N-(5-{4′-Amino-2′-[3-((S)-1-hydroxymethyl-propyl)-ureido]-[2,5′]bithiazolyl-4-yl}-2,4-difluoro-phenyl)-3-methoxy-benzamide]
1.4 nM | COc1cccc(C(=O)Nc2cc(-c3csc(-c4sc(NC(=O)NCCN5CCOCC5)nc4N)n3)c(F)cc2F)c1 [O(26), N-(5-{4′-Amino-2′-[3-(2-morpholin-4-yl-ethyl)-ureido]-[2,5′]bithiazolyl-4-yl}-2,4-difluoro-phenyl)-3-methoxy-benzamide]
1.7 nM | COc1cccc(C(=O)Nc2cc(-c3csc(-c4sc(NC(=O)NCCN5CCCC5)nc4N)n3)c(F)cc2F)c1 [O(27), N-(5-{4′-Amino-2′-[3-(2-pyrrolidin-1-yl-ethyl)-ureido]-[2,5′]bithiazolyl-4-yl}-2,4-difluoro-phenyl)-3-methoxy-benzamide]
0.29 nM | COc1cccc(C(=O)Nc2cc(-c3csc(-c4sc(NC(=O)NCCOCCO)nc4N)n3)c(F)cc2F)c1 [O(28), N-[5-(4′-Amino-2′-{3-[2-(2-hydroxy-ethoxy)-ethyl]-ureido}-[2,5′]bithiazolyl-4-yl)-2,4-difluoro-phenyl]-3-methoxy-benzamide]
0.23 nM | CNC(=O)Nc1nc(N)c(-c2nc(-c3cccc(NC(=O)c4cccc(OC)c4)c3)c(C)s2)s1 [O(31), N-{3-[4′-Amino-5-methyl-2′-(3-methyl-ureido)-[2,5′]bithiazolyl-4-yl]-phenyl}-3-methoxy-benzamide]
